Test results: patent US9211244B2, “Method for anti-skin aging using caffeamide derivative” (CHINA MEDICAL UNIVERSITY, priority 2013, dated 2015)

Assays:
[1] = tested on: human fibroblast Hs68 cells; assay: Scavenging test of ROS free radicals in UVB-irradiated cells; assay type: cell-based; conditions: UVB 80 mJ/cm^2, 24 hours
Method: After incubated in an incubator (37° C., 5% CO2) for 24 hours, the ROS level was examined.

[2] = tested on: c-Fos; assay: Inhibition test of AP-1 gene transcription factors, western blot; assay type: cell-based, human; conditions: 10 μM; UVB 40 mJ/cm^2
From the text: When cells are irradiated by UV rays, JNK, p38 and c-Jun in the cells will translocated into the nucleus, and c-For will translocate into the nucleus under the regulation of ERK and p38. The two subunits of c-Jun and c-Fos will combine to form an AP-1 gene transcription factor to participate in gene expression process and increase the mRNA transcription level of MMP-1. On the other hand, the two subunits can also reduce the gene expression level of procollagen al of Type I collagen. Therefore, in this experiment, the expression of AP-1 in the nucleus was analyzed by western blotting.
However, after the cells were treated with the compound of formula (2) prepared in Example 1, the protein expression levels of c-Fos, p-c-Jun, and c-Jun induced by UVB were inhibited in a concentration dependent way. Specifically, when the concentration of the compound of formula (2) was 10 μM, the expression level of c-Fos was 1.1 as compared to that of the untreated cells.

[3] = tested on: p-p38; assay: Inhibition test of the phosphorylation of MAPK, western blot; assay type: cell-based, human; conditions: 5 μM; UVB 40 mJ/cm^2
Method: (§1) It has been known that the skin photo-aging caused by UV rays will increase the content of MMPs in the dermis by the phosphorylation of MAPK. In this experiment, the effect of caffeamide derivative on the phosphorylation of MAPK in the cells was analyzed by western blotting.
(§2) After being treated with the compound of formula (2) prepared in Example 1, the protein expression levels of the MAPKs induced by UVB were inhibited in a concentration dependent way. Specifically, when the concentration of the compound of formula (2) was 10 μM, the expression level of P-ERK was 1.1 times as compared to that of the untreated cells. When the concentration of the compound of formula (2) was 5 μM, the expression levels of p-JNK and p-p38 were both 1.1 times as compared to that of the untreated cells.

[4] = tested on: p-JNK; assay: as above; assay type: cell-based, human; conditions: 5 μM; UVB 40 mJ/cm^2
Method: as §1, §2

[5] = tested on: p-ERK; assay: as above; assay type: cell-based, human; conditions: 10 μM; UVB 40 mJ/cm^2
Method: as §1, §2

[6] = Scavenging test of DPPH free radical; assay type: biochemical; conditions: for Scavenging efficiency (%): 200 μM DPPH, 30 minutes
Method: DPPH (1,1-diphenyl-2-picrylhydrazyl) was used as a source of free radicals to examine the scavenging efficiency of the caffeamide derivatives prepared in Example 1 on free radicals. […] The mixtures were placed in the dark at room temperature for 30 minutes and its absorbance at 517 nm was measured by an enzyme immunoassay analyzer. In this experiment, 50 volume % propanediol was used to replace extracts and to be a control group, ascorbic acid (vitamin C) was used as a positive control group, and methanol was used to replace DPPH as the background value. The scavenging efficiency of caffeamide derivatives on free radicals was examined by the formula blow, and the results are shown in Table 2, FIG. 1a, and FIG. 1b. Scavenging efficiency(%)=[the absorbance of the control group−the absorbance of the experimental group/the absorbance of the control group]×100%.

[7] = tested on: skin of white rabbit; assay: Primary skin irritation test; assay type: in vivo, New Zealand white rabbit
Method: First, 20 mg (low dosage) and 80 mg or 100 mg (high dosage) of the compounds of formula (1) and formula (2) prepared in Example 1 were dissolved in 1 ml of 40% PEG-400 solution, respectively. Next, a New Zealand white rabbit was fixed on a rabbit cage and the fur on its back was clipped. A color pen was used to draw six squares (2.5 cm×2.5 cm for each square) of smearing region. The six squares were divided into keratin intact group and keratin abraded group. In the keratin abraded group, a sterile needle was used to scrape four parallel lines inside the squares on the back of the white rabbit to damage the keratin layer, but without bleeding. Low dosage and high dosage of compounds of formula (1) or formula (2) were smeared inside the squares evenly. After 24 hours, the skin of white rabbit was wiped with physiologic saline solution to remove compounds of formula (1) or formula (2). […] The observation time should be extended when the irritation was shown.
The statistical method of this test was analyzed by ANOVA (analysis of variance) and Student's t-test; p<0.05 indicates a statistical significance. Each experiment was performed over three times, and the results are shown by the standard error of the mean (mean±standard error). The results are shown in Table 7A, Table 7B, FIGS. 11a to 11d, and FIGS. 12a to 12d.

[8] = tested on: MMP-9; assay type: cell-based, human; conditions: 10 μM; UVB 40 mJ/cm^2; 48 hours
Method: After incubating for 1 hour, the cells were irradiated by UV light (UVB with an intensity of 40 mJ/cm^2) for 15 seconds. […] After incubation in an incubator (37° C., 5% CO2) for 48 hours, the cells were collected.
The collected cells were treated with a sonication buffer (containing Na3VO4 (100 μM), phenylmethanesulfonyl fluoride (PMSFL, 100 mg/ml), leupeptin (20 mg/ml), Tris-HCl (pH 7.4, 50 μM), NaCl (37.5 μM), DL-dithiothretiol (250 μM), sodium deoxycholate (3 μM), EDTA (1 μM), SDS (0.1%), and Igepal™ CA-630 (Sigma-Aldrich, 1%)) and sonicated to rupture the cell membranes. Then, the organelles and fragments of the cells were precipitated by centrifugation, and the supernatant, which contains proteins in the cytosol was collected. Next, the obtained proteins were separated by SDS-PAGE, and transferred to a membrane by western blotting. Antibodies were used to recognize the targeted proteins, such as MMP-1, MMP-3, MMP-9, and actin. The images were recorded by a Luminescent imagination technology (LAS-4000, FUJIFILM), and the variation of the proteins expression levels were determined by a quantitative analysis software (multi Gauge 2.2, Steware Technology Inc.).

With `O=C(C=Cc1ccc(O)c(O)c1)NCCc1ccc(Br)cc1` [Compound of formula (2)] the “Concentration of ROS (times compared to the untreated cells)” value ([1]; 5 μM) was 1.0 ± 0.09 times, the “Concentration of ROS (times compared to the untreated cells)” value ([1]; 10 μM) was 0.9 ± 0.02 times and the “Concentration of ROS (times compared to the untreated cells)” value ([1]; 10 μM, listed as compound of formula (2)) was 0.9 times. For the same molecule, the “Concentration of ROS (times compared to the untreated cells)” value ([1]; 25 μM) was 0.8 ± 0.04 times, the “Concentration of ROS (times compared to the untreated cells)” value ([1]; 25 μM, listed as compound of formula (2)) was 0.8 times and the “expression level of c-Fos as compared to that of the untreated cells” value [2] was 1.1. For the same molecule, the “expression level of p-p38 as compared to that of the untreated cells” value [3] was 1.1 times, the “expression level of p-JNK as compared to that of the untreated cells” value [4] was 1.1 times and the “expression level of p-ERK as compared to that of the untreated cells” value [5] was 1.1 times. The “Scavenging efficiency (%)” value ([6]; 1 μM) was 6.4 ± 4.9%, the “Scavenging efficiency (%)” value ([6]; 5 μM) was 12.9 ± 3.5% and the “Scavenging efficiency (%)” value ([6]; 10 μM) was 26.5 ± 0.9%. The “Scavenging efficiency (%)” value ([6]; 25 μM) was 62.1 ± 2.9%, the “Scavenging efficiency (%)” value ([6]; 50 μM) was 96.6 ± 0.4% and the EC50 ([6]; DPPH free radical scavenging, read-out: SC50 (the source's name)) was 20 ± 1 µM. For the same molecule, the “primary irritation index (PII), mean ± standard error” value ([7]; 20 mg, 24 hour, abraded skin) was 0.0 ± 0.0, the “primary irritation index (PII), single rabbits 1-3” value ([7]; 20 mg, 24 hour, abraded skin) was 0 and the “primary irritation index (PII), mean ± standard error” value ([7]; 20 mg, 24 hour, intact skin) was 0.0 ± 0.0. For the same molecule, the “primary irritation index (PII), single rabbits 1-3” value ([7]; 20 mg, 24 hour, intact skin) was 0, the “primary irritation index (PII), mean ± standard error” value ([7]; 20 mg, 72 hour, abraded skin) was 0.0 ± 0.0 and the “primary irritation index (PII), single rabbits 1-3” value ([7]; 20 mg, 72 hour, abraded skin) was 0. The “primary irritation index (PII), mean ± standard error” value ([7]; 20 mg, 72 hour, intact skin) was 0.0 ± 0.0, the “primary irritation index (PII), single rabbits 1-3” value ([7]; 20 mg, 72 hour, intact skin) was 0 and the “primary irritation index (PII), mean ± standard error” value ([7]; 80 mg, 24 hour, abraded skin) was 0.7 ± 0.6. The “primary irritation index (PII), mean ± standard error” value ([7]; 80 mg, 24 hour, intact skin) was 0.0 ± 0.0, the “primary irritation index (PII), single rabbits 1-3” value ([7]; 80 mg, 24 hour, intact skin) was 0 and the “primary irritation index (PII), mean ± standard error” value ([7]; 80 mg, 72 hour, abraded skin) was 0.3 ± 0.6. The “primary irritation index (PII), mean ± standard error” value ([7]; 80 mg, 72 hour, intact skin) was 0.0 ± 0.0, the “primary irritation index (PII), single rabbits 1-3” value ([7]; 80 mg, 72 hour, intact skin) was 0 and the “expression level of MMP-9 as compared to that of the untreated cells” value [8] was 0.7 times.
